Consider 14 molecules from PubChem BioAssay (NCI).

Several values for one entry are separate records, joined by “and”; a condition that tells them apart may be missing. Equal entries are not always repeated.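 A five-concentration, 48-hour dose response in 96-well plates underlies each endpoint, interpolated linearly between surrounding concentrations. Here, GI50 denotes the concentration required for 50% inhibition of growth. At the TGI there is no net growth.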

Some test systems named below: HL-60(TB) leukemia; KM20L2 colon; MALME-3M melanoma; M19-MEL melanoma; COLO 205 colon; OVCAR-4 ovarian; HCT-116 colon; K-562 leukemia; DU-145 prostate; HS 578T breast.
Holding throughout (assay): NCI tumour cell line growth inhibition, 48 h

As for `CC(C)(C)c1cc(CCC(=O)Nc2ccc(Cl)cc2Cl)nc(N)n1`, the TGI in the assay on HL-60(TB) leukemia, in the assay on KM20L2 colon, in the assay on MALME-3M melanoma, in the assay with M19-MEL melanoma, with COLO 205 colon and in the assay on OVCAR-4 ovarian was more than 100 µM each time. In addition, the TGI in the assay with HCT-116 colon and in the assay on K-562 leukemia was more than 100 µM each time.

For the molecule `C=CC1=CC(C)C[C@]1(O)C(=O)OC` (stereo partly specified), the GI50 in the assay with HL-60(TB) leukemia, in the assay on MALME-3M melanoma, in the assay on M19-MEL melanoma, with COLO 205 colon, in the assay with OVCAR-4 ovarian and in the assay on HCT-116 colon was more than 100 µM in each case. Besides, the GI50 in the assay with K-562 leukemia was more than 100 µM. The TGI with KM20L2 colon was more than 100 µM.

Regarding `Cc1nnc(N=Nc2c(O)[nH]c3ccccc23)n1N`, the TGI with HL-60(TB) leukemia, in the assay on KM20L2 colon, with MALME-3M melanoma, in the assay with M19-MEL melanoma, in the assay with COLO 205 colon and in the assay on OVCAR-4 ovarian was more than 100 µM in each case. The TGI in the assay with HCT-116 colon and in the assay on K-562 leukemia was more than 100 µM in each case.

As to `CC1=C(C(=O)CC(=O)C(=O)NC2C3CC4CC(C3)CC2C4)Sc2ccccc2N1` (stereo unspecified), the TGI in the assay with HL-60(TB) leukemia was more than 100 µM; in the assay on KM20L2 colon it was more than 100 µM; with MALME-3M melanoma it was more than 100 µM; in the assay on M19-MEL melanoma, more than 100 µM; in the assay with COLO 205 colon it was more than 31.6 µM; with OVCAR-4 ovarian, more than 100 µM. In addition, the TGI with HCT-116 colon and with K-562 leukemia was more than 100 µM each time.

`CCCCCCCCCC(=O)Oc1cccc2onc(C)c12`: the TGI is 56.4 µM with HL-60(TB) leukemia; more than 100 µM in the assay on KM20L2 colon; more than 100 µM in the assay with MALME-3M melanoma; more than 100 µM in the assay on M19-MEL melanoma; more than 100 µM in the assay with COLO 205 colon; more than 100 µM in the assay with OVCAR-4 ovarian. Also, the TGI with HCT-116 colon and in the assay with K-562 leukemia was more than 100 µM throughout.

For the molecule `CC[C@@]1(O)C(=O)OCc2c1cc1n(c2=O)Cc2cc3c(N)cccc3nc2-1`, the GI50 in the assay with DU-145 prostate was 0.004 µM; in the assay on HS 578T breast, 0.0865 µM; in the assay with HCT-116 colon, 0.00979 µM and 0.0559 µM; in the assay with K-562 leukemia, 0.0277 µM. The TGI is less than 0.0299 µM in the assay on DU-145 prostate; 0.51 µM in the assay with HL-60(TB) leukemia; 4.02 µM in the assay with KM20L2 colon; 1.88 µM with MALME-3M melanoma; more than 60.7 µM in the assay with HS 578T breast; 0.654 µM in the assay on M19-MEL melanoma. Further, the TGI in the assay with COLO 205 colon was 6.22 µM; with OVCAR-4 ovarian, 3.62 µM; in the assay with HCT-116 colon, 0.737 µM; with K-562 leukemia, more than 100 µM.

Consider `Cc1ccccc1NC(=O)C(=O)CC(=O)c1ccc([N+](=O)[O-])cc1`, for which the TGI in the assay with KM20L2 colon, in the assay with MALME-3M melanoma, in the assay on M19-MEL melanoma, in the assay with COLO 205 colon, with OVCAR-4 ovarian and in the assay with HCT-116 colon was more than 100 µM in each case.

As to `CCOC(=O)C[C@@]12CCCNC1(C)CCc1ccccc12` (stereo partly specified), the TGI in the assay on HL-60(TB) leukemia, in the assay on KM20L2 colon, in the assay with MALME-3M melanoma, in the assay on M19-MEL melanoma, with COLO 205 colon and in the assay on HCT-116 colon was more than 100 µM each time. The molecule also showed a TGI in the assay with K-562 leukemia of more than 100 µM.

Turning to `CC(=O)[CH-]C(=O)c1ccccc1.CC(=O)[CH-]C(=O)c1ccccc1.[CH2-]CCC.[CH2-]CCC.[Sn+4]`, the GI50 in the assay on HL-60(TB) leukemia is 0.322 µM; in the assay with KM20L2 colon it was 1.99 µM; in the assay with MALME-3M melanoma, 0.63 µM; in the assay with M19-MEL melanoma, 0.632 µM; in the assay with COLO 205 colon it was 0.984 µM; in the assay with HCT-116 colon, 1.38 µM. In the assay with K-562 leukemia, the GI50 was 0.331 µM. The TGI in the assay with HL-60(TB) leukemia was 1.09 µM; in the assay on KM20L2 colon, 3.94 µM; in the assay with MALME-3M melanoma, 1.91 µM; in the assay on M19-MEL melanoma, 1.96 µM; in the assay on COLO 205 colon it was 2.47 µM; in the assay with HCT-116 colon it was 2.78 µM. Further, in the assay on K-562 leukemia, the TGI was 10.3 µM.

`C/C(=N/NC(=O)CC(=O)N(C(=O)c1ccccc1Cl)c1ccc(C)cc1)c1cc2ccccc2oc1=O`: the TGI with HL-60(TB) leukemia, with KM20L2 colon, in the assay on MALME-3M melanoma, with M19-MEL melanoma, in the assay on COLO 205 colon and with OVCAR-4 ovarian was more than 100 µM throughout. Further, the TGI in the assay with HCT-116 colon and with K-562 leukemia was more than 100 µM throughout.

In the case of `O=C(O)[C@@H]1CCCC[C@@H]1C(=O)N(C1CCCCC1)C1CCCCC1`, the TGI in the assay with HL-60(TB) leukemia, in the assay on KM20L2 colon, in the assay on MALME-3M melanoma, with M19-MEL melanoma, with COLO 205 colon and in the assay on OVCAR-4 ovarian was more than 100 µM each time. The TGI in the assay on HCT-116 colon and in the assay with K-562 leukemia was more than 100 µM each time.

For `COc1ccc(CC2=NCCc3cc(OC)c(OC)cc32)cc1Br`, the TGI was 21.7 µM with HL-60(TB) leukemia; 99.3 µM in the assay on KM20L2 colon; 70.4 µM in the assay on MALME-3M melanoma; more than 100 µM in the assay with M19-MEL melanoma; 37.4 µM with COLO 205 colon; more than 100 µM with OVCAR-4 ovarian. In addition, in the assay with K-562 leukemia, the TGI was 93.2 µM.

In the case of `CC1(C)CC(=O)c2c(oc3cc(O)c(O)cc23)C1`, the TGI with HL-60(TB) leukemia was 48.5 µM; in the assay on KM20L2 colon, more than 100 µM; with MALME-3M melanoma it was 94.6 µM; in the assay with M19-MEL melanoma it was more than 100 µM; in the assay with COLO 205 colon it was more than 100 µM; in the assay with OVCAR-4 ovarian it was 43.4 µM. Also, in the assay on K-562 leukemia, the TGI was more than 100 µM.

As to `NC(=O)C(=O)n1ncc(Cl)c(Cl)c1=O`, the TGI is more than 100 µM with DU-145 prostate; 17.7 µM with HL-60(TB) leukemia; more than 90.8 µM in the assay on KM20L2 colon; 38.7 µM with MALME-3M melanoma; more than 100 µM with HS 578T breast; more than 65.3 µM in the assay with M19-MEL melanoma. In addition, the TGI was more than 51.1 µM with COLO 205 colon, 46.9 µM in the assay with OVCAR-4 ovarian, 55.3 µM with HCT-116 colon and 47 µM in the assay with K-562 leukemia.
